Reference: EP4813991A1 (iLeadBMS Co., Ltd., priority 2023, dated 2025)
Read-outs that look alike come from different tables or passages of the source.

Tests used:
[1] = tested on: MKN45 cells; experiment: Gastric cancer cell proliferation inhibitory activity (CellTiter Glo), MKN45; format: cell-based; conditions: Homo sapiens, MKN-45, 72 hours, relative IC50
Experimental: Experiments were performed using four types of gastric cancer cell lines (AGS, SNU-1, KATO-III, and MKN45) to measure the cell proliferation inhibitory ability of each Example compound. For AGS cells, 90 µL of cell suspension was dispensed into a 96-well plate using F-12K (Gibco) medium containing 10 % FBS, followed by incubation in a cell incubator at 37 °C and 5 % CO2. For SNU-1 and MKN45 cells, 90 µL of cell suspension was dispensed into a 96-well plate using RPMI1640 (Gibco) medium containing 10 % FBS, followed by incubation in a cell incubator at 37 °C and 5 % CO2. For KATO-III cells, 90 uL of cell suspension was dispensed into a 96-well plate using IMDM (Gibco) medium containing 10 % FBS, followed by incubation in a cell incubator at 37 °C and 5 % CO2. The next day, each Example compound dissolved and diluted in DMSO across 9 concentration ranges and a DMSO control group were added at 10 µL to each 96-well plate and treated for 72 hours. After completion of the compound treatment, 100 µL of CellTiter Glo (Promega) reagent was added to each well of the 96-well plate, followed by shaking for 10 minutes and standing at room temperature for 10 minutes. Luminescence signals were measured after inserting the 96-well plate into an Envision plate reader (PerkinElmer). Relative IC50 values were calculated by fitting a dose-response curve using XLfit (IDBS Ltd) software.
The gastric cancer cell proliferation inhibitory activities of the Example compounds measured by the method described above were evaluated according to the following criteria, and the results are presented in Table 16.

[2] = target: CDK13 (Homo sapiens, UniProt Q14004); experiment: CDK13 kinase inhibitory activity assay (33P-ATP filter binding); format: biochemical
Outline: (§1)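 Compound in 9 concentrations pre-incubated 20 min with kinase and substrate, then ^33P-γ-ATP added and reacted 120 min at room temperature. Phosphorylated substrate captured on filter, washed with 0.75 % phosphoric acid and counted; activity as % of DMSO control, IC50 fitted.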

[3] = tested on: MDA-MB-436 cells; experiment: Breast cancer cell proliferation inhibitory activity, MDA-MB-436; format: cell-based; conditions: Homo sapiens, 72 hours, CellTiter Glo, relative IC50
Experimental: Experiments were conducted using three types of breast cancer cell lines to measure the cell proliferation inhibitory ability of each Example compound. For HCC70 cells, 100 µL of cell suspension was dispensed into a 96-well plate using RPMI1640 (Invitrogen) medium containing 10 % FBS, followed by incubation in a cell incubator at 37 °C and 5 % CO2. For BT-20 cells, 100 µL of cell suspension was dispensed into a 96-well plate using EMEM (Invitrogen) medium containing 10 % FBS, followed by incubation in a cell incubator at 37 °C and 5 % CO2. For MDA-MB-436 cells, 100 µL of cell suspension was dispensed into a 96-well plate using L-15 (Invitrogen) medium containing 10 % FBS, followed by incubation in a cell incubator at 37 °C and 0 % CO2. The next day, each Example compound dissolved and diluted in DMSO across 9 concentration ranges and a DMSO control group were treated on the cells for 72 hours. After completion of the compound treatment, 100 µL of CellTiter Glo (Promega) reagent was added to each well of the 96-wellplate, followed by shaking for 10 minutes and standing at room temperature for 10 minutes. After inserting the 96-well plate into an Envision plate reader (PerkinElmer), luminescence signals were measured. Relative IC50 values were calculated by fitting a dose-response curve using XL fit (IDBS Ltd) software.
The breast cancer cell proliferation inhibitory activities of the Example compounds measured by the method described above were evaluated according to the following criteria, and the results are presented in Table 15.

[4] = target: CDK1 (Homo sapiens, UniProt P06493); experiment: CDK1 kinase inhibitory activity assay and selectivity over CDK12; format: biochemical; conditions: for IC50: kinase reaction 120 minutes, 33P-gamma-ATP
Outline: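 Radiometric ^33P-gamma-ATP filter-binding assay: compound (9 concentrations, DMSO) preincubated 20 min with CDK1 or CDK2 plus substrate, then kinase reaction 120 min at room temperature. Phosphorylated substrate counted after phosphoric acid washes; activity relative to DMSO control, IC50 calculated.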

[5] = target: CDK12 (Homo sapiens, UniProt Q9NYV4); experiment: CDK12 kinase inhibitory activity assay (33P-ATP filter binding); format: biochemical
Outline: as §1

[6] = kinase reaction 120 minutes, 33P-gamma-ATP, read-out: CDK13 IC50
[7] = kinase reaction 120 minutes, 33P-gamma-ATP, read-out: CDK12 IC50

CDK12, sequence (Q9NYV4 whole entry, species assumed): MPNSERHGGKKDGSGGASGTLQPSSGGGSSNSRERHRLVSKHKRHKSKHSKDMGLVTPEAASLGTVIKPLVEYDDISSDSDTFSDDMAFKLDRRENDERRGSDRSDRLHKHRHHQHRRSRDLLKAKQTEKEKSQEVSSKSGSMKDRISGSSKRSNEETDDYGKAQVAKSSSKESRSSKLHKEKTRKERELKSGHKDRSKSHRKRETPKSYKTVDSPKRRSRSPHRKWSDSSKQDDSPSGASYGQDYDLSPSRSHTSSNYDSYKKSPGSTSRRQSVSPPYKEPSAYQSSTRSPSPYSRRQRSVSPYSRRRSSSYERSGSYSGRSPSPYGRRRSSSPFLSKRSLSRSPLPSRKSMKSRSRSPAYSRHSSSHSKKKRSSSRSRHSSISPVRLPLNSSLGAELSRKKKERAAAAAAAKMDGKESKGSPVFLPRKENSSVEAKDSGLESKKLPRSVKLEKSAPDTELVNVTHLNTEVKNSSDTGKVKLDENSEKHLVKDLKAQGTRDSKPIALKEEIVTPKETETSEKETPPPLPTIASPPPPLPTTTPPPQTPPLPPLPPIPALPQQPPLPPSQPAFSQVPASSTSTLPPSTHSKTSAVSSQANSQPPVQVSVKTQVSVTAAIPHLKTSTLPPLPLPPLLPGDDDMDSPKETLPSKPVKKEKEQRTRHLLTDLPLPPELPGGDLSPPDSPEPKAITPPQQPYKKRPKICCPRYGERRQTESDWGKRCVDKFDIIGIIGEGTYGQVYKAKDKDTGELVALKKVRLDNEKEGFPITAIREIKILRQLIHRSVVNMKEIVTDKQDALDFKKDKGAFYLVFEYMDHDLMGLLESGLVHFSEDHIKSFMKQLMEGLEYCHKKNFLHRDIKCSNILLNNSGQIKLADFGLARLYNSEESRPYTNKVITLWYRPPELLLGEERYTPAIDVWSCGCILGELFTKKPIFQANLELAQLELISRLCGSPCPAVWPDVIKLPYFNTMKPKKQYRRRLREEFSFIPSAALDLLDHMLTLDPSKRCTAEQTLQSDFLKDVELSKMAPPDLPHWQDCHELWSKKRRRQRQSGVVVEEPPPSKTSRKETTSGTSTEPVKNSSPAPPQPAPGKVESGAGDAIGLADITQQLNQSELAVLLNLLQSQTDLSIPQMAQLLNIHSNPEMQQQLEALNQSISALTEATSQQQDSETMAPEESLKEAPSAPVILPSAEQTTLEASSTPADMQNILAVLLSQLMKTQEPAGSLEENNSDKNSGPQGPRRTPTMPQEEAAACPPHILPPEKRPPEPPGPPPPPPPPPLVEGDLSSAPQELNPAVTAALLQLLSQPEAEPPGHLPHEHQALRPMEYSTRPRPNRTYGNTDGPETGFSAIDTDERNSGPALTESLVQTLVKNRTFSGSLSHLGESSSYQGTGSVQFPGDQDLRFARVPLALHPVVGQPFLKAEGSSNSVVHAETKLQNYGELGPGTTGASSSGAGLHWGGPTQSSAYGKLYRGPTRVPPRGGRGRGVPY
CDK12, sequence (O75909 whole entry partner, species assumed): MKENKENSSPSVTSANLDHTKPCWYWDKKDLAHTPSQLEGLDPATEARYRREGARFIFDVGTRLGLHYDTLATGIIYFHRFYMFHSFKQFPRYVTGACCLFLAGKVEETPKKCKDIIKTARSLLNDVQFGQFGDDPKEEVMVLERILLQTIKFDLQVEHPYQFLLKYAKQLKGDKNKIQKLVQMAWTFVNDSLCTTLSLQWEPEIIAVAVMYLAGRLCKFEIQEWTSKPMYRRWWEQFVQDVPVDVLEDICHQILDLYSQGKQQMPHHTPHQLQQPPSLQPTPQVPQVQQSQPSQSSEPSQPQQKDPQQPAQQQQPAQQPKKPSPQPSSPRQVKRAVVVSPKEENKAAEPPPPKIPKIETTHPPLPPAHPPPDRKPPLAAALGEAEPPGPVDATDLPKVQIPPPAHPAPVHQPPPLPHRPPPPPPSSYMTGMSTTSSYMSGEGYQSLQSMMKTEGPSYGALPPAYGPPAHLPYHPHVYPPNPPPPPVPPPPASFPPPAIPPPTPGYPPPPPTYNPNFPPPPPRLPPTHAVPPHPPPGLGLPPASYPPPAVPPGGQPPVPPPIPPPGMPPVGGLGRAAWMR
CDK13, sequence (Q14004 whole entry, species assumed): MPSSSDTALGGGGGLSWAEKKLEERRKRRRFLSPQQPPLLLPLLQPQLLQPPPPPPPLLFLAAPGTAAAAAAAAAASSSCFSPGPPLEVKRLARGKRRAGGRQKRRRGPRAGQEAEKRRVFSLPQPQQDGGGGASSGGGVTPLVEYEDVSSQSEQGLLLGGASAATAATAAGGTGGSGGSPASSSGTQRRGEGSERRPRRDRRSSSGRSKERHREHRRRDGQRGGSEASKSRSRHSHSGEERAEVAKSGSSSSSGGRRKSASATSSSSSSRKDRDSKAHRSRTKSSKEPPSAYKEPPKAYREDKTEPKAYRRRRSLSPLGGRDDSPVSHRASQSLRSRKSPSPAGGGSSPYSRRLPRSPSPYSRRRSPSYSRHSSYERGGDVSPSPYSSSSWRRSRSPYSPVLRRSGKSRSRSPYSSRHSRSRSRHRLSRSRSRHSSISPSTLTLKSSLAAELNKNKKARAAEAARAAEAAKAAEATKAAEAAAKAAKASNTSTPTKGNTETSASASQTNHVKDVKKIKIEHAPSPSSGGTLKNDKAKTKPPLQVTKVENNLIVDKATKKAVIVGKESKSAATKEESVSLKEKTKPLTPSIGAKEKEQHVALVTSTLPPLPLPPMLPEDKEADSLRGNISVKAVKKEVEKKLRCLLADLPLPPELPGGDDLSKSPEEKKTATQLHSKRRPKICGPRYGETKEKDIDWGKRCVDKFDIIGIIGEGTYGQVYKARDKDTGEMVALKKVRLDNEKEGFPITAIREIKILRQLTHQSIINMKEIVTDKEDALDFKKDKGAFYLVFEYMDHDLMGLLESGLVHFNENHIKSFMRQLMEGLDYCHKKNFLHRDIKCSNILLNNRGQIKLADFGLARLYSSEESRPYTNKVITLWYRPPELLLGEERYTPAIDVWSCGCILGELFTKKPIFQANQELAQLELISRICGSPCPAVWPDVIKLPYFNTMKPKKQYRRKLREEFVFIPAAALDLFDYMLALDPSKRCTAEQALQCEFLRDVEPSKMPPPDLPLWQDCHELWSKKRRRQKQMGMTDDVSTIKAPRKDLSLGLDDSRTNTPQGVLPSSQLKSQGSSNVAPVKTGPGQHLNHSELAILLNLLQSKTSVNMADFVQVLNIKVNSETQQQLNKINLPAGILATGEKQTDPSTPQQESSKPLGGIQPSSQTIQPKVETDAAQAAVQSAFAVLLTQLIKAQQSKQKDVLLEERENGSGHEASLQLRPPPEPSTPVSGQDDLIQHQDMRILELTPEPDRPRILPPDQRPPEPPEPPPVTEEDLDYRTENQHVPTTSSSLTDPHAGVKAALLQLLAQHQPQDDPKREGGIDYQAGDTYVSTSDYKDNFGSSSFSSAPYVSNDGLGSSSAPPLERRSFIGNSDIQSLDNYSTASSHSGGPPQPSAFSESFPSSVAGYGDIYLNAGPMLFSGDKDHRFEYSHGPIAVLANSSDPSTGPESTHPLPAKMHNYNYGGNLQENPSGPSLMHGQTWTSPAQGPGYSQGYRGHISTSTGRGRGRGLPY
CDK13, sequence (O75909 whole entry partner, species assumed): as the sequence (O75909 whole entry partner, species assumed) above
CDK1, sequence (P06493 whole entry, species assumed): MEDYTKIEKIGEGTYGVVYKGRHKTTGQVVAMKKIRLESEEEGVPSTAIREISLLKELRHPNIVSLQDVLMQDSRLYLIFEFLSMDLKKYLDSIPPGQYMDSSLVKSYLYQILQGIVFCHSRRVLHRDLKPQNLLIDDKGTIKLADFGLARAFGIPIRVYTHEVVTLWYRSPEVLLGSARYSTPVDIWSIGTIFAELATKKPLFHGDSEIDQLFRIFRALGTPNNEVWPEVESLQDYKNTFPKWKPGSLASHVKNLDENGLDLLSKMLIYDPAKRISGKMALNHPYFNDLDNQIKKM
CDK1, sequence (P14635 whole entry partner, species assumed): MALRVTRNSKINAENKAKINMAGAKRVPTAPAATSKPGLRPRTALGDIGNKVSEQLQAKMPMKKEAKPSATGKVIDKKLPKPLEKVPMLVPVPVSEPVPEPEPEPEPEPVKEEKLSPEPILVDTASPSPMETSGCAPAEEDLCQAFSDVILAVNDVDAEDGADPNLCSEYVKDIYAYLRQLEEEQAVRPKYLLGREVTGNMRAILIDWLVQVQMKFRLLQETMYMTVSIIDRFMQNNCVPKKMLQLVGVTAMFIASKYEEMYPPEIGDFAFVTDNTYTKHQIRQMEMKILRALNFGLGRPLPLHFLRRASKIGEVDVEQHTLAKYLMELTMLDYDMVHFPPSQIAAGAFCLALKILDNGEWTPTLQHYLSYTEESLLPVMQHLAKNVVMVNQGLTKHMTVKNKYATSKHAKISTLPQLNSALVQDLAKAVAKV

Row | IC50 [1] [nM] | IC50 [3] [nM] | IC50 [2] [nM] | CDK1/CDK12 ([4]; ratio of CDK1 IC50 to CDK12 IC50) | IC50 [5, 7] [nM] | Structure (SMILES) | IC50 [2, 6] [nM] | IC50 [4] [nM] | IC50 [5] [nM]
1 | ≤ 200 | ≤ 50 | < 100 | A (CDK1/CDK12 or CDK2/CDK12 > 500-fold) | < 100 | CN1CCN(c2cc(NCc3nc4ccc(F)c(F)c4[nH]3)c3ncc(C(F)(F)F)n3n2)CC1 [Example 8, N-((6,7-difluoro-1H-benzo[d]imidazol-2-yl)methyl)-6-(4-methylpiperazin-1-yl)-3-(trifluoromethyl)imidazo[1,2-b]pyridazin-8-amine] |  | > 1000 | 
2 | ≤ 200 | ≤ 50 |  |  | < 100 | CN1CCN(c2cc(NCc3nc4cc(Cl)c(Cl)cc4[nH]3)c3ncc(C(F)(F)F)n3n2)CC1 [Example 29, N-((5,6-dichloro-1H-benzo[d]imidazol-2-yl)methyl)-6-(4-methylpiperazin-1-yl)-3-(trifluoromethyl)imidazo[1,2-b]pyridazin-8-amine] | < 100 | > 1000 | 
3 |  |  |  |  |  | Nc1ncc(-c2cc(NCc3nc4cc(Cl)c(Cl)cc4[nH]3)c3ncc(C(F)(F)F)n3n2)cn1 [Example 40] | < 100 | > 1000 | < 100

Row | Structure (SMILES) | IC50 [1] [nM] | IC50 [3] [nM] | IC50 [2] [nM] | CDK1/CDK12 ([4]; ratio of CDK1 IC50 to CDK12 IC50) | IC50 [5, 7] [nM] | IC50 [2, 6] [nM] | IC50 [4] [nM] | IC50 [5] [nM]
4 | N#CC1CN(c2cc(NCc3nc4cc(Cl)c(Cl)cc4[nH]3)c3ncc(C(F)(F)F)n3n2)C1 [Example 30, 1-(8-(((5,6-dichloro-1H-benzol[d]imidazol-2-yl)methyl)amino)-3-(trifluoromethyl)imidazo[1,2-b]pyridazin-6-yl)azetidine-3-carbonitrile] | ≤ 200 | ≤ 50 |  |  |  | < 100 | > 1000 | 100 to 500
